Activity calls are given as the source filed them. How the calls were made is not given here.
Target: Mu-type opioid receptor (Homo sapiens) (UniProt P35372)
Assay: OPRM1 activation in cells, late-stage follow-up, counter-screen for OPRM1-OPRD1 heterodimer activator project, cell-based, luminescence, dose response, set 2 (AID 651769)
Conditions: OPRM1 cell-based luminescence activation counterscreen

Mu-type opioid receptor (Homo sapiens), sequence (P35372 whole entry, looked up): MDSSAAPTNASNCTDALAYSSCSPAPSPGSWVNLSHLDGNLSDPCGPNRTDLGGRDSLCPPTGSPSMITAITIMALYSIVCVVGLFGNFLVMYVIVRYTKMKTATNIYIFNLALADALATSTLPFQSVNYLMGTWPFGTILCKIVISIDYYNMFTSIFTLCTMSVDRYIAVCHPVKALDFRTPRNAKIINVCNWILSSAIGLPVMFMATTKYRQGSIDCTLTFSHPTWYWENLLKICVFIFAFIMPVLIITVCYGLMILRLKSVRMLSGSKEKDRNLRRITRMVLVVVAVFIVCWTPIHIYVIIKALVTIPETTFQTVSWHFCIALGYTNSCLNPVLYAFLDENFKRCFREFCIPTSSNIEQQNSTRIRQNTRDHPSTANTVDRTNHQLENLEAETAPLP

Row | SMILES | EC50
1 | CCOC(=O)C1(Cc2cccc(OC)c2)CCCN(Cc2ccc(NC(C)=O)cc2)C1 (stereo not drawn) | > 50 µM (inactive)
2 | CCOC(=O)C1CCN(Cc2ccc(NC(C)=O)cc2)CC1 | > 50 µM (inactive)
3 | CCOC(=O)C1(CCc2ccccc2)CCN(C(=O)Nc2ccc(C)cc2C)CC1 | > 50 µM (inactive)
4 | CCOC(=O)C1(CCOC)CCN(Cc2ccc(N(C)c3ccccc3)cc2)CC1 | > 50 µM (inactive)
5 | CCOC(=O)C1(Cc2ccccc2Cl)CCN(Cc2ccc(NC(C)=O)cc2)CC1 | > 50 µM (inactive)
6 | CCOC(=O)C1(CC2CC2)CCN(Cc2ccc(NC(C)=O)cc2)CC1 | > 50 µM (inactive)
7 | CCOC(=O)C1(CCOC)CCN(Cc2ccc(NC(C)=O)cc2)CC1 | > 50 µM (inactive)
8 | CCOC(=O)C1CCN(C(=O)c2ccc(N(C)C)cc2)CC1 | > 50 µM (inactive)
9 | C=Cc1ccc(C(=O)N2CCC(CCc3ccccc3)(C(=O)OCC)CC2)cc1 | > 50 µM (inactive)
10 | CCOC(=O)C1CCN(CCC(=O)Nc2ccc(C)cc2)CC1 | > 50 µM (inactive)
11 | CCOC(=O)C1(CCc2ccccc2)CCN(Cc2ccc(O)cc2)CC1 | > 50 µM (inactive)
12 | CCOC(=O)C1(CCc2ccccc2)CCCN(Cc2ccc(N3CCNC3=O)cc2)C1 (stereo not drawn) | > 50 µM (inactive)
13 | C=Cc1ccc(C(=O)N2CCC(CCCc3ccccc3)(C(=O)OCC)CC2)cc1 | > 50 µM (inactive)
14 | CCOC(=O)C1(Cc2ccccc2)CCCN(Cc2ccc(NC(C)=O)cc2)C1 (stereo not drawn) | > 50 µM (inactive)
15 | CCOC(=O)C1(CCOC)CCCN(Cc2ccc(NC(C)=O)cc2)C1 (stereo not drawn) | > 50 µM (inactive)
16 | O=C(O)C1CCCCC1C(=O)Nc1ccc(CN2CCCCC2)cc1 (stereo not drawn) | > 50 µM (inactive)
17 | CCOC(=O)C1(CC2CC2)CCN(C(=O)c2ccc(N3CCCCC3)cc2)CC1 | > 50 µM (inactive)
18 | CCOC(=O)C1CCN(Cc2ccc(N(C)C)cc2)CC1 | > 50 µM (inactive)
19 | CCOC(=O)C1(Cc2ccc(OC)cc2)CCN(C(=O)c2ccc(N(C)C)cc2)CC1 | > 50 µM (inactive)
20 | CC(=O)Nc1ccc(CN2CCCC(CO)(CCc3ccccc3)C2)cc1 (stereo not drawn) | > 50 µM (inactive)
21 | CCOC(=O)C1(CCc2ccccc2)CCN(Cc2c(O)cccc2OC)CC1 | 3.44 µM
22 | CCOC(=O)C1(CCc2ccccc2)CCN(Cc2ccc(C(=O)OC)cc2)CC1 | > 50 µM (inactive)
23 | CCOC(=O)C1(CCc2ccccc2)CCN(Cc2ccc(OC)cc2)CC1 | 1.92 µM
24 | CCOC(=O)C1CCCCN1Cc1ccc(NC(C)=O)cc1 (stereo not drawn) | > 50 µM (inactive)
25 | CCOC(=O)C1(Cc2ccccc2C)CCCN(Cc2ccc(NC(C)=O)cc2)C1 (stereo not drawn) | > 50 µM (inactive)
26 | CCOC(=O)C1(CCc2ccccc2)CCN(Cc2ccc(C#CC(C)(C)O)cc2)CC1 | > 50 µM (inactive)
27 | CCOC(=O)C1(CCOc2ccccc2)CCCN(Cc2ccc(NC(C)=O)cc2)C1 (stereo not drawn) | > 50 µM (inactive)
28 | CCOC(=O)C1(CCc2ccccc2)CCN(Cc2ccncc2)CC1 | > 50 µM (inactive)
